These results are taken from PubChem BioAssay AID1645848.

Converted amounts (≈) assume the structure as drawn.

For the data set the following is noted: buffer; pH 7.4; 6.0 h; 150.0 µM.
`Cc1cc(C)nc(NC(=S)N2CCN(c3nccc(C(F)(F)F)n3)CC2)c1` had a solubility (kinetic) of 7.21 µg/mL (≈ 18.2 µM). In the case of `O=C1Cc2cc(C(=O)c3ccco3)ccc2N1`, the solubility (kinetic) was above 34 µg/mL. The figure for `NC(=O)C1CCN(c2nc(-c3cccc(Cl)c3)cs2)CC1` is 10.6 µg/mL (≈ 32.9 µM). Molecule `CCOc1ccc(CCNC(=O)c2cc3sccc3n2Cc2ccc(Cl)c(F)c2)cc1OCC` registered a solubility (kinetic) below 1 µg/mL. The figure for `Cc1cccc(-n2cnc3cc(C(=O)N4CCCC(C)(C)C4)ccc32)c1` is 37.7 µg/mL (≈ 109 µM); for `CC(=O)c1c(C)[nH]c(C(=O)Nc2cccc([S+](=O)([O-])Nc3ccc(C#N)cc3)c2)c1C` it is 36.8 µg/mL (≈ 84.3 µM); for `Cc1nc(Sc2nnnn2C)c2c(-c3ccccc3)csc2n1` it is 19.4 µg/mL (≈ 57.1 µM). The figure for `C#CCNC(=O)c1nc(-c2ccc([S+](C)(=O)[O-])cc2)c2ccccn12` is 1.27 µg/mL (≈ 3.59 µM); for `O=C(CCCN1CCC(n2c(=O)[nH]c3ccccc32)CC1)c1ccc(F)cc1` it is 33.3 µg/mL (≈ 87.2 µM).

Molecule `COc1ccc(NC(=O)c2c(C)c(C(C)=O)c(C)n2C)cc1S(=O)(=O)Nc1ccc(Br)cc1` showed a solubility (kinetic) below 1 µg/mL. As for `COc1cc2ncnc(Oc3cccc(NC(=O)Nc4cc(C(C)(C)C(F)(F)F)on4)c3)c2cc1OC`, the figure is 8.62 µg/mL (≈ 16.7 µM). Take `CC(C)Oc1cccc(-c2cnc(N3CCC(C(N)=O)CC3)s2)c1`: the kinetic solubility was 1.43 µg/mL (≈ 4.15 µM). As for `COc1cccc(CNc2ccc(S(=O)(=O)Nc3nc4ccccc4o3)cc2)c1O`, the figure is above 63 µg/mL.

Turning to `COc1cc(Cl)c(C)cc1NS(=O)(=O)c1c(C)nc2sccn2c1=O`, the kinetic solubility was below 1 µg/mL.

On to `COC(=O)C1=C(C)NC(C)=C(C(=O)OCCCN2CCC(c3ccccc3)(c3ccccc3)CC2)C1c1cccc([N+](=O)[O-])c1.Cl` (centres undefined), for which the solubility (kinetic) was below 1 µg/mL. As for `COc1cnccc1-c1nc(Nc2ccc(F)c(F)c2)c2ccccc2n1`, the figure is above 54 µg/mL. The figure for `COc1ccc(-c2nc3ncccc3[nH]2)cc1` is above 67 µg/mL; for `Cc1ccc(NC(=O)N2CCN(c3nc(N)nc4sc(-c5cccnc5)nc34)CC2)cc1` it is below 1 µg/mL. The figure for `Cc1cc(-c2nnc3n2CCCCC3)c(C)n1-c1ccc(F)cc1` is 35.3 µg/mL (≈ 109 µM); for `CN1CC(CNC(=O)OCc2ccccc2)C[C@H]2c3cccc4c3c(cn4C)CC21` (some centres undefined) it is 38.4 µg/mL (≈ 95.2 µM); for `Cc1nn(CCc2nc(-c3ccc(OC(F)F)cc3)cs2)c2[nH]c(=O)cc(C(F)(F)F)c12` it is below 1 µg/mL.

Turning to `COc1ccc(-c2csc(NC(=O)c3ccccc3NS(=O)(=O)c3ccc(C)cc3)n2)cc1`, the solubility (kinetic) was below 1 µg/mL. As for `COc1ccc(Cn2c(C(=O)O)c(CNCc3ccco3)c3ccc(C)cc32)cc1`, the figure is above 60 µg/mL. With `Cc1nc([N+](=O)[O-])cn1-c1ccc([N+](=O)[O-])cc1`, the kinetic solubility was above 37 µg/mL. The figure for `Cc1cnc(-c2ccccc2C(C)C)nc1NCC1CCN(c2cccnc2)C1` (centres undefined) is 7.52 µg/mL (≈ 19.4 µM); for `Cc1cc(-c2nnc3n2CCCCC3)c(C)n1-c1cccc2ccccc12` it is 15.6 µg/mL (≈ 43.8 µM); for `Cc1cc(NS(=O)(=O)c2ccc(N(C)C(=O)Cc3ccc(Cl)c(Cl)c3)cc2)no1` it is above 67 µg/mL. On to `COc1cccc(CNc2ccc(S(=O)(=O)Nc3cc(C)on3)cc2)c1O`, for which the solubility (kinetic) is above 58 µg/mL. `O=S(=O)(Nc1cccc2ccccc12)c1ccc(NCc2ccc(Br)cc2O)cc1` had a kinetic solubility below 1 µg/mL. With `COc1ccc(OC)c(Nc2c3c(nc4ccccc24)CCC3)c1`, the kinetic solubility was above 47 µg/mL.

As to `Cc1ccc(-n2ncc3c(Nc4cccc(C(=O)O)c4)ncnc32)cc1`, the solubility (kinetic) is above 51 µg/mL. As for `Cc1c(C(=O)NN2CCCCC2)nn(-c2ccc(Cl)cc2Cl)c1-c1ccc(Cl)cc1`, the figure is below 1 µg/mL.

Molecule `COc1cccc(NC(=O)c2cccc3c(=O)c4c([nH]c23)CCCC4)c1` displayed a kinetic solubility below 1 µg/mL.

`O=c1cc(-c2ccc(O)c(O)c2)oc2cc(O)cc(O)c12` came in with a solubility (kinetic) above 100 µg/mL. The figure for `COc1ncccc1-c1cc2c(ccn2CC2CCN([S+](C)(=O)[O-])CC2)c(N2CCOCC2)n1` is 50.2 µg/mL (≈ 103 µM). `COc1ccc(N2Cc3cccc(C(=O)Nc4ccc(C(C)C)cc4)c3C2=O)cc1` registered a kinetic solubility below 1 µg/mL. The figure for `O=C(Nc1ccccc1-c1cn2c(CN3CCNCC3)csc2n1)c1cnc2ccccc2n1` is 4.56 µg/mL (≈ 9.71 µM); for `Cc1cc(C)nc(NC(=S)N2CCN(c3cc(C(F)(F)F)nc4ccc(C(F)(F)F)cc34)CC2)c1` it is 12 µg/mL (≈ 23.4 µM); for `Cc1noc(C)c1-c1cc2c(cc(C)n2C)c(-c2cnn(C)c2)n1` it is 15.2 µg/mL (≈ 47.2 µM). The figure for `Cc1ccc(S(=O)(=O)Nc2cccc(C(=O)Nc3nc(-c4ccccc4)cs3)c2Cl)cc1` is below 1 µg/mL. As for `O=C(Nc1ccc(-c2nc3cc(NC(=O)c4ccccc4Cl)ccc3o2)cc1)c1ccccc1Cl`, the figure is below 1 µg/mL; as for `c1cc(-c2cc(-c3ccncc3)c3cncn3c2)c2cc[nH]c2c1`, below 1 µg/mL. As to `NC(=O)C1CCN(c2nccc(Cl)n2)CC1`, the solubility (kinetic) is above 35 µg/mL. As for `COc1cc(-c2nc(Cn3nnc(C(=O)Nc4cc(C)cc(C)c4)c3C)c(C)o2)cc(OC)c1OC`, the figure is below 1 µg/mL; as for `Cc1ccc(S(=O)(=O)Nc2cc(Cl)ccc2C(=O)Nc2nc(-c3ccccc3)cs2)cc1`, below 1 µg/mL; as for `O=C1c2ccccc2C2=Nc3ccccc3SC(c3ccc(Cl)cc3)C12` (centres undefined), below 1 µg/mL. `Cn1nnnc1Sc1ncnc2sccc12`: the solubility (kinetic) was above 37 µg/mL.

Take `COc1ccc(CNc2ccc(S(=O)(=O)Nc3nccs3)cc2)c(O)c1`: the solubility (kinetic) is 45.4 µg/mL (≈ 116 µM). Consider `O=S(=O)(Nc1nccs1)c1ccc(NCc2cccc(Cl)c2Cl)cc1`, for which the solubility (kinetic) was below 1 µg/mL. As for `CCCCOC(=O)c1ccnc2cc(C(OCCN3CCCCC3)c3ccccc3Cl)sc12` (centres undefined), the figure is below 1 µg/mL.

Consider `O=C(Nc1nc(-c2ccccc2)cs1)c1ccncc1NS(=O)(=O)c1cccnc1`, for which the kinetic solubility is above 65 µg/mL. As for `Cc1c(CN(C)c2cc(C3CC(O)C3)nc(N)n2)[nH]c2ccccc12` (centres undefined), the figure is above 50 µg/mL; as for `Cc1cc(-c2nnc3n2CCCCC3)c(C)n1-c1ccccc1`, above 45 µg/mL.

In the case of `CN(C)c1ccccc1-c1csc(N2CCC(C(N)=O)CC2)n1`, the solubility (kinetic) was above 49 µg/mL. As for `O=C(O)c1cnc(-c2ccc(F)cc2)nc1-c1ccncc1`, the figure is above 29 µg/mL. The figure for `O=C1C2=C(Nc3ccccc3SC2c2ccco2)c2ccccc21` (centres undefined) is below 1 µg/mL. The figure for `O=[S+]([O-])(Nc1cccc2ccccc12)c1ccc(NCc2ccc(Cl)cc2O)cc1` is below 1 µg/mL. With `NC(=O)C1CCN(c2nc(-c3ccccc3F)cs2)CC1`, the kinetic solubility is 4.65 µg/mL (≈ 15.2 µM). As for `Oc1ccc(-c2nc(C3CC3)nc3c2CCN(Cc2ccc(F)cc2)CC3)cc1`, the figure is 8.86 µg/mL (≈ 22.8 µM); as for `CC(C)(C)c1ccc(S(=O)(=O)c2cnc(SCC(=O)Nc3ccc(F)c(Cl)c3)[nH]c2=O)cc1`, 58.4 µg/mL (≈ 114 µM); as for `NC(=O)C1CCN(c2nc(-c3ccc4occc(=O)c4c3)cs2)CC1`, above 52 µg/mL. The figure for `Cc1cc(C)nc(N2CCCC(C(=O)NCCc3ccc(F)cc3)C2)n1` (centres undefined) is 2.77 µg/mL (≈ 7.77 µM); for `Cc1cc(-c2nnc3n2CCCCC3)c(C)n1-c1ccc(C(F)(F)F)cc1` it is 43.3 µg/mL (≈ 116 µM).

Molecule `COc1ccc(-c2nc3ccc(C4=NNC(=O)CC4C)cc3[nH]2)cc1` (centres undefined) registered a solubility (kinetic) below 1 µg/mL.

In the case of `CCN(CC)C(=O)c1ccc(O)c(OC)c1`, the kinetic solubility was determined as 27.3 µg/mL (≈ 122 µM). As for `COc1ccc(-c2cn[nH]c2-c2ccc(OC)cc2)cc1`, the figure is 4.26 µg/mL (≈ 15.2 µM). In turn, `Cc1ccc(OCCn2c(CCNC(=O)N3CCCCC3)nc3ccccc32)cc1` returned a kinetic solubility of 9.07 µg/mL (≈ 22.3 µM). Take `Clc1cccc(-c2ccc(-c3nnc(CCCc4ccc5cccnc5n4)o3)cc2)c1`: the solubility (kinetic) was below 1 µg/mL. The figure for `CNc1nc2c(s1)C(c1ccccc1F)CC(=O)N2` (centres undefined) is 13.7 µg/mL (≈ 49.3 µM); for `Cn1c2ccccc2c(=O)c2c(=O)n(-c3ccccc3)c(C3CCCCC3)nc21` it is below 1 µg/mL; for `CNC(=O)c1cc(Oc2ccc(NC(=O)Nc3ccc(Cl)c(C(F)(F)F)c3)c(F)c2)ccn1` it is below 1 µg/mL.

In the case of `COc1cc2c(Nc3ccc(Br)cc3F)ncnc2cc1OCC1CCN(C)CC1`, the kinetic solubility is above 70 µg/mL. In turn, `COc1ccc(NC(=O)c2[nH]c(C)c(C(C)=O)c2C)cc1[S+](=O)([O-])Nc1ccccc1C#N` registered a solubility (kinetic) of 55.6 µg/mL (≈ 119 µM). As to `Cc1ccc(C)n1-c1cccc(C(=O)O)c1`, the solubility (kinetic) was above 32 µg/mL. `C=C[C@]1(C)C[C@@H](OC(=O)CSC(C)(C)CNC(=O)[C@H](N)C(C)C)[C@]2(C)[C@H](C)CC[C@]3(CCC(=O)[C@H]32)[C@@H](C)[C@@H]1O` had a kinetic solubility of 36.6 µg/mL (≈ 64.8 µM). For the molecule `CC1=C(C(=O)Nc2ccccc2Cl)C(c2ccccc2Br)N=C(Nc2nc3ccccc3o2)N1` (centres undefined), the kinetic solubility was below 1 µg/mL. The figure for `CC(=O)Nc1ccc(C(=O)Nc2ccc3c(c2)N(C2CCCC2)C(=O)c2ccccc2S3)cc1` is below 1 µg/mL; for `NC(=O)c1cnc(N[C@@H]2CCCC[C@@H]2N)nc1Nc1cccc(-n2nccn2)c1` it is above 39 µg/mL. The figure for `CC1=C(C(=O)Nc2nncs2)C(c2nn(C)cc2Cl)N=C(Nc2nc3ccccc3o2)N1` (centres undefined) is 16.3 µg/mL (≈ 34.6 µM); for `Cc1nc2nc(NC(=O)c3ccc(C(C)(C)C)cc3)[nH]n2c(=O)c1Cl` it is 14.7 µg/mL (≈ 40.8 µM). The figure for `Cc1ccc(C)c(S(=O)(=O)NCC2CN(Cc3ccccc3)CCO2)c1` (centres undefined) is above 55 µg/mL; for `CNc1nc(-c2cccc3ccccc23)ccc1C#N` it is below 1 µg/mL; for `COc1ccc(-c2cnc(N3CCC(C(N)=O)CC3)s2)cc1OC` it is 18.8 µg/mL (≈ 54 µM).

On to `FC(F)(F)c1ccc(N2CCN(C(=S)Nc3ccccn3)CC2)cc1`, for which the kinetic solubility was 8.21 µg/mL (≈ 22.4 µM).

With `COc1ccc(NC(=O)c2[nH]c(C)c(C(C)=O)c2C)cc1S(=O)(=O)Nc1ccc(C#N)cc1`, the solubility (kinetic) was 4.06 µg/mL (≈ 8.7 µM). Against the preceding molecule, the solubility kinetic is about 2-fold lower.

For `COc1cccc(CNc2ccc(S(=O)(=O)Nc3ccc(-c4ccccc4)cc3)cc2)c1O`, the solubility (kinetic) was below 1 µg/mL.

Molecule `COc1ccc2nc(C)cc(Nc3ccc(Cl)c(Cl)c3)c2c1` registered a solubility (kinetic) below 1 µg/mL.

The molecule `Fc1cc(Nc2nc(-c3ccncc3)nc3ccccc23)ccc1-c1ccc2[nH]ncc2c1` returned a solubility (kinetic) below 1 µg/mL. Regarding `O=c1cc(CSc2ccc(Cl)cc2)nc(-c2ccccn2)[nH]1`, the kinetic solubility amounted to 1.18 µg/mL (≈ 3.58 µM).
